Results from ChEMBL document CHEMBL3232753, “Synthesis and in vitro cytotoxic effect of 6-amino-substituted 11H- and 11Me-indolo[3,2-c]quinolines” (Eur J Med Chem, 2014).

Columns and labels:
MV4-11 = test: Cytotoxicity against human MV4-11 cells assessed as cell viability after 72 hrs by MTT assay; type: functional, cell-based; details: MV4-11, 72 h
BALB/3T3 = test: Cytotoxicity against mouse BALB/3T3 cells assessed as cell viability after 72 hrs by SRB assay; type: cell-based; details: BALB/3T3, 72 h
A549 [1] = test: Cytotoxicity against human A549 cells assessed as cell viability after 72 hrs by SRB assay; type: functional, cell-based; details: A549, 72 h
HCT-116 [2] = test: Cytotoxicity against human HCT116 cells assessed as cell viability after 72 hrs by SRB assay; type: functional, cell-based; details: HCT-116, 72 h
Salmonidae = test: Binding affinity to Salmon fish sperm DNA by UV-visible spectroscopy
HCT-116 [3] = test: Selectivity ratio of IC50 for human MV4-11 cells to IC50 for human HCT116 cells; type: functional
A549 [4] = test: Selectivity ratio of IC50 for human A549 cells to IC50 for human HCT116 cells; type: functional

`Cn1c2ccccc2c2c(NCC(C)(C)CN)nc3ccc(Cl)cc3c21` was tested, and the IC50 (MV4-11) was 560 nM.

In the case of `Cn1c2ccccc2c2c(Cl)nc3ccccc3c21`, the IC50 (MV4-11) is reported as 16600 nM.

Work on `CN(C)CCCNc1nc2ccccc2c2[nH]c3ccccc3c12` yielded an IC50 (MV4-11) of 410 nM, an IC50 (BALB/3T3) of 1180 nM and an IC50 (A549 [1]) of 870 nM. For the same compound, the IC50 (HCT-116 [2]) was 550 nM and the K (Salmonidae) was 1.05 ×10⁶ L/mol.

In the case of `c1ccc2c(c1)nc(N1CCOCC1)c1c3ccccc3[nH]c21`, the IC50 (MV4-11) is reported as 9430 nM.

`Clc1nc2ccccc2c2[nH]c3ccccc3c12` was tested, and the IC50 (MV4-11) was 9140 nM.

In the case of `NCCCNc1nc2ccc([N+](=O)[O-])cc2c2[nH]c3ccccc3c12`, the IC50 (MV4-11) is reported as 150 nM, the IC50 (BALB/3T3) is reported as 360 nM and the IC50 (A549 [1]) is reported as 350 nM. For the same compound, the IC50 (HCT-116 [2]) was 100 nM.

In the case of `CC(CN)CNc1nc2ccc(Cl)cc2c2[nH]c3ccccc3c12` (configuration not stated), the IC50 (MV4-11) is reported as 620 nM.

Compound `Cn1c2ccccc2c2c(NCCCNC(=O)Nc3ccccc3)nc3ccccc3c21` has an IC50 (MV4-11) of 570 nM, an IC50 (BALB/3T3) of 6110 nM and an IC50 (A549 [1]) of 1190 nM. The IC50 (HCT-116 [2]) was 820 nM.

For `Cn1c2ccccc2c2c(NCCCN)nc3ccc([N+](=O)[O-])cc3c21`, the IC50 (MV4-11) was 50 nM, the IC50 (BALB/3T3) was 80 nM and the IC50 (A549 [1]) was 110 nM. For the same compound, the IC50 (HCT-116 [2]) was 10 nM.

In the case of `NCCCNc1nc2ccccc2c2[nH]c3ccccc3c12`, the IC50 (MV4-11) is reported as 120 nM, the IC50 (BALB/3T3) is reported as 1050 nM and the IC50 (A549 [1]) is reported as 170 nM. The IC50 (HCT-116 [2]) was 260 nM.

Compound `NCCCNc1nc2ccc(Cl)cc2c2[nH]c3ccccc3c12` has an IC50 (MV4-11) of 560 nM.

For `Cc1ccc2nc(NCCCN)c3c4ccccc4[nH]c3c2c1`, the IC50 (MV4-11) was 140 nM, the IC50 (BALB/3T3) was 920 nM and the IC50 (A549 [1]) was 210 nM. The IC50 (HCT-116 [2]) was 80 nM and the “Ratio IC50” value (HCT-116 [3]) was 8.

For `Cn1c2ccccc2c2c(NCCCN)nc3ccccc3c21`, the IC50 (MV4-11) was 110 nM, the IC50 (BALB/3T3) was 950 nM and the IC50 (A549 [1]) was 180 nM. For the same compound, the IC50 (HCT-116 [2]) was 60 nM.

`COc1ccc2nc(NCCCN)c3c4ccccc4n(C)c3c2c1` gave an IC50 (MV4-11) of 100 nM, an IC50 (BALB/3T3) of 100 nM and an IC50 (A549 [1]) of 110 nM. It also gave an IC50 (HCT-116 [2]) of 10 nM.

`CCN(CC)CCCC(C)Nc1nc2ccccc2c2c1c1ccccc1n2C` (configuration not stated) was tested, and the IC50 (MV4-11) was 70 nM, the IC50 (BALB/3T3) was 500 nM and the IC50 (A549 [1]) was 110 nM. It also gave an IC50 (HCT-116 [2]) of 50 nM.

Work on `Cn1c2ccccc2c2c(NCC(C)(C)CN)nc3ccc(Br)cc3c21` yielded an IC50 (MV4-11) of 500 nM.

For `Cn1c2ccccc2c2c(NCC(C)(C)CN)nc3ccccc3c21`, the IC50 (MV4-11) was 150 nM, the IC50 (BALB/3T3) was 700 nM and the IC50 (A549 [1]) was 540 nM. The IC50 (HCT-116 [2]) was 130 nM.

`Cn1c2ccccc2c2c(NCCCN)nc3ccc(F)cc3c21` showed an IC50 (MV4-11) of 170 nM, an IC50 (BALB/3T3) of 980 nM and an IC50 (A549 [1]) of 250 nM. It also gave an IC50 (HCT-116 [2]) of 110 nM.

`NCCCCCNc1nc2ccccc2c2[nH]c3ccccc3c12` showed an IC50 (MV4-11) of 610 nM, an IC50 (BALB/3T3) of 1010 nM and an IC50 (A549 [1]) of 1050 nM. For the same compound, the IC50 (HCT-116 [2]) was 1060 nM.

In the case of `CN1CCCN(c2nc3ccccc3c3[nH]c4ccccc4c23)CC1`, the IC50 (MV4-11) is reported as 740 nM, the IC50 (BALB/3T3) is reported as 8960 nM and the IC50 (A549 [1]) is reported as 1970 nM. The IC50 (HCT-116 [2]) was 1650 nM.

`CN(C)CCCNc1nc2ccc(Br)cc2c2c1c1ccccc1n2C` was tested, and the IC50 (MV4-11) was 390 nM.

In the case of `NCCCCCCNc1nc2ccccc2c2[nH]c3ccccc3c12`, the IC50 (MV4-11) is reported as 710 nM, the IC50 (BALB/3T3) is reported as 1070 nM and the IC50 (A549 [1]) is reported as 1060 nM. For the same compound, the IC50 (HCT-116 [2]) was 1080 nM.

For `OCCNc1nc2ccccc2c2[nH]c3ccccc3c12`, the IC50 (MV4-11) was 440 nM, the IC50 (BALB/3T3) was 830 nM and the IC50 (A549 [1]) was 1450 nM. For the same compound, the IC50 (HCT-116 [2]) was 190 nM and the “Ratio IC50” value (A549 [4]) was 7.

Work on `NCCCNc1nc2ccc(Br)cc2c2[nH]c3ccccc3c12` yielded an IC50 (MV4-11) of 650 nM.

`c1ccc(CNc2nc3ccccc3c3[nH]c4ccccc4c23)cc1` gave an IC50 (MV4-11) of 770 nM, an IC50 (BALB/3T3) of 8040 nM and an IC50 (A549 [1]) of 1990 nM. The IC50 (HCT-116 [2]) was 1460 nM.

Work on `CN1CCCN(c2nc3ccccc3c3c2c2ccccc2n3C)CC1` yielded an IC50 (MV4-11) of 960 nM.

Work on `CC(C)(CN)CNc1nc2ccc(Cl)cc2c2[nH]c3ccccc3c12` yielded an IC50 (MV4-11) of 590 nM.

`c1ccc2c(c1)nc(N1CCCNCC1)c1c3ccccc3[nH]c21` showed an IC50 (MV4-11) of 850 nM, an IC50 (BALB/3T3) of 10100 nM and an IC50 (A549 [1]) of 2460 nM. It also gave an IC50 (HCT-116 [2]) of 1730 nM.

`CCN(CC)CCCC(C)Nc1nc2ccc(Cl)cc2c2c1c1ccccc1n2C` (configuration not stated) gave an IC50 (MV4-11) of 570 nM.

`COc1ccc2nc(NCCCN)c3c4ccccc4[nH]c3c2c1` gave an IC50 (MV4-11) of 120 nM, an IC50 (BALB/3T3) of 310 nM and an IC50 (A549 [1]) of 160 nM. For the same compound, the IC50 (HCT-116 [2]) was 70 nM and the “Ratio IC50” value (HCT-116 [3]) was 8.

Compound `Cn1c2ccccc2c2c(NCCCN)nc3ccc(Cl)cc3c21` has an IC50 (MV4-11) of 120 nM, an IC50 (BALB/3T3) of 940 nM and an IC50 (A549 [1]) of 730 nM. For the same compound, the IC50 (HCT-116 [2]) was 110 nM.

`c1ccc2c(c1)nc(NCC1CCCO1)c1c3ccccc3[nH]c21` (configuration not stated) showed an IC50 (MV4-11) of 750 nM, an IC50 (BALB/3T3) of 3040 nM and an IC50 (A549 [1]) of 1400 nM. It also gave an IC50 (HCT-116 [2]) of 1280 nM.

For `NCCCCNc1nc2ccccc2c2[nH]c3ccccc3c12`, the IC50 (MV4-11) was 700 nM, the IC50 (BALB/3T3) was 1140 nM and the IC50 (A549 [1]) was 1160 nM. For the same compound, the IC50 (HCT-116 [2]) was 1060 nM.

For `COc1ccc(Nc2nc3ccccc3c3[nH]c4ccccc4c23)c(OC)c1`, the IC50 (MV4-11) was 7280 nM.

`CN(C)CCCNc1nc2ccc(Cl)cc2c2c1c1ccccc1n2C` showed an IC50 (MV4-11) of 80 nM, an IC50 (BALB/3T3) of 820 nM and an IC50 (A549 [1]) of 570 nM. The IC50 (HCT-116 [2]) was 100 nM and the K (Salmonidae) was 4.84 ×10⁶ L/mol.

With `Cc1ccc2nc(NCCCN)c3c4ccccc4n(C)c3c2c1` the IC50 (MV4-11) was 90 nM, the IC50 (BALB/3T3) was 420 nM and the IC50 (A549 [1]) was 140 nM. The IC50 (HCT-116 [2]) was 70 nM.

`OCCCNc1nc2ccccc2c2[nH]c3ccccc3c12` gave an IC50 (MV4-11) of 380 nM, an IC50 (BALB/3T3) of 860 nM and an IC50 (A549 [1]) of 2210 nM. For the same compound, the IC50 (HCT-116 [2]) was 260 nM and the “Ratio IC50” value (A549 [4]) was 7.

In the case of `NCCCNc1nc2ccc(F)cc2c2[nH]c3ccccc3c12`, the IC50 (MV4-11) is reported as 590 nM.

With `NCCCNc1nc2cccc(Br)c2c2[nH]c3ccccc3c12` the IC50 (MV4-11) was 600 nM.

Compound `NCCCN1CCN(CCCNc2nc3ccccc3c3[nH]c4ccccc4c23)CC1` has an IC50 (MV4-11) of 390 nM, an IC50 (BALB/3T3) of 1150 nM and an IC50 (A549 [1]) of 760 nM. It also gave an IC50 (HCT-116 [2]) of 980 nM.

Work on `Cn1c2ccccc2c2c(NCCCN)nc3ccc(Br)cc3c21` yielded an IC50 (MV4-11) of 430 nM.

For `c1ccc(Nc2nc3ccccc3c3[nH]c4ccccc4c23)cc1`, the IC50 (MV4-11) was 8370 nM.

`CN(C)CCCNc1nc2ccccc2c2c1c1ccccc1n2C` was tested, and the IC50 (MV4-11) was 140 nM, the IC50 (BALB/3T3) was 780 nM and the IC50 (A549 [1]) was 140 nM. For the same compound, the IC50 (HCT-116 [2]) was 200 nM.
